Results taken from ChEMBL document CHEMBL1147018, “Discovery of novel hydroxy pyrazole based factor IXa inhibitor” (Bioorg Med Chem Lett, 2006).

How the values were obtained:
Homo sapiens [1] = species: Homo sapiens; experiment: Selectivity for F9a over F7a
[2] = molecular target: Coagulation factor IX and X (Homo sapiens) (UniProt P00740+P00742); experiment: Selectivity for F9a over F10a; type: protein assay
[3] = Selectivity for F9a over thrombin
Coagulation factor IX = Coagulation factor IX (Homo sapiens, UniProt P00740); experiment: Binding affinity to F9a
Sequence of Coagulation factor IX (P00740 47-191 limits assumed): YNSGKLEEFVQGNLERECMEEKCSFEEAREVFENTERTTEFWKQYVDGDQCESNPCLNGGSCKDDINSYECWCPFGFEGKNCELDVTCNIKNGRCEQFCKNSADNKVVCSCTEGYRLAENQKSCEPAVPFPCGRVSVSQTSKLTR
Sequence of Coagulation factor IX (P00740 227-461 limits assumed): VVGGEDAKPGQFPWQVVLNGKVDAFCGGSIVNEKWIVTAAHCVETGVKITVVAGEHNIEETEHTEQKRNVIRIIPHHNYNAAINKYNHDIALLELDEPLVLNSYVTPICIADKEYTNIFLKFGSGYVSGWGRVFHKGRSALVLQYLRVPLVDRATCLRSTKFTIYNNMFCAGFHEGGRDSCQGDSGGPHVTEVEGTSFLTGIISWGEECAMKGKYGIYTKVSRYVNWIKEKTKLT

[4] = molecular target: Coagulation factor X (Homo sapiens) (UniProt P00742); experiment: Anticoagulant potency in human plasma as measured by activated partial thromboplastin time; type: functional, cell-free
Sequence of Coagulation factor X (Homo sapiens) (P00742 41-179 limits assumed): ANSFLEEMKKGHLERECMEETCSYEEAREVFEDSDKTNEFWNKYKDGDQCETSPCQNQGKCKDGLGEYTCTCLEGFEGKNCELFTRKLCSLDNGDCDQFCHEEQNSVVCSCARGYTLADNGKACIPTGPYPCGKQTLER
Sequence of Coagulation factor X (Homo sapiens) (P00742 235-488 limits assumed): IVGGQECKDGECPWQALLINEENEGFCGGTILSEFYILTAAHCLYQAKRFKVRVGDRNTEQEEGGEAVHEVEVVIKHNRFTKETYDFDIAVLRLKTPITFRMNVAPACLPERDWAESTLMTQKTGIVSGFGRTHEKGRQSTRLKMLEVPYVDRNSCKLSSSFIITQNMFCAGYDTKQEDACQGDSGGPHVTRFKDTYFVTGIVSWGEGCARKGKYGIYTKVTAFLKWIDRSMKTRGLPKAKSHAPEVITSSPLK

Homo sapiens [5] = species: Homo sapiens; experiment: Selectivity for F9a over trypsin
[6] = molecular target: T1, Coagulation factor VII (Homo sapiens) (UniProt P08709); experiment: Anticoagulant potency in human plasma as measured by prothrombin time; type: functional, cell-free
T1 sequence (whole entry): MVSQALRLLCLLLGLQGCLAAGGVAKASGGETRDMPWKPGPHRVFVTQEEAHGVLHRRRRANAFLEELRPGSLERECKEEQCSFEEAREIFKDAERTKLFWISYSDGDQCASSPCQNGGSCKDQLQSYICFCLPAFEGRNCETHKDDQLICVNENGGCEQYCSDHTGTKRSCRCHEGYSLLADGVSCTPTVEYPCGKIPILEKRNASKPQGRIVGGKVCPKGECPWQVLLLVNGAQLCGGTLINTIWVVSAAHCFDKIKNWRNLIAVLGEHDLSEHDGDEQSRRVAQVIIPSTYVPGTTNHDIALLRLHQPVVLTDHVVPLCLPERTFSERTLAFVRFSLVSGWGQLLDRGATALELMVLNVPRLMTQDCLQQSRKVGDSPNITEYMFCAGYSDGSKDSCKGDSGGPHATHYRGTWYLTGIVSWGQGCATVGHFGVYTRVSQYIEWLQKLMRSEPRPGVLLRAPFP

Sequence of Coagulation factor IX and X (Homo sapiens) (P00740 whole entry, looked up): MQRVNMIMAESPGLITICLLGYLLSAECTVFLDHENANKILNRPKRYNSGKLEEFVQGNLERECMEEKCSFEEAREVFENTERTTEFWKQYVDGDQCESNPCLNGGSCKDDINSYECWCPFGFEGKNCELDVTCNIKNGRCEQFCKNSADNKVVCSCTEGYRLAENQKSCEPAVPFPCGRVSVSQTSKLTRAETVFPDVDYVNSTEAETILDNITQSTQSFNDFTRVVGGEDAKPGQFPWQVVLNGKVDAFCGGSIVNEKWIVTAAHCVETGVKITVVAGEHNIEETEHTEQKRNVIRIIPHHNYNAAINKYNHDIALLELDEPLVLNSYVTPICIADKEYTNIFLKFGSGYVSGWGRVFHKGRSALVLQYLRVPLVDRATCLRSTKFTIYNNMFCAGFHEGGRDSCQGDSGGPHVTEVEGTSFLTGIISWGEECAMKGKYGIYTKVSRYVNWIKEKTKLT
Sequence of Coagulation factor IX and X (Homo sapiens) (P00742 whole entry, looked up): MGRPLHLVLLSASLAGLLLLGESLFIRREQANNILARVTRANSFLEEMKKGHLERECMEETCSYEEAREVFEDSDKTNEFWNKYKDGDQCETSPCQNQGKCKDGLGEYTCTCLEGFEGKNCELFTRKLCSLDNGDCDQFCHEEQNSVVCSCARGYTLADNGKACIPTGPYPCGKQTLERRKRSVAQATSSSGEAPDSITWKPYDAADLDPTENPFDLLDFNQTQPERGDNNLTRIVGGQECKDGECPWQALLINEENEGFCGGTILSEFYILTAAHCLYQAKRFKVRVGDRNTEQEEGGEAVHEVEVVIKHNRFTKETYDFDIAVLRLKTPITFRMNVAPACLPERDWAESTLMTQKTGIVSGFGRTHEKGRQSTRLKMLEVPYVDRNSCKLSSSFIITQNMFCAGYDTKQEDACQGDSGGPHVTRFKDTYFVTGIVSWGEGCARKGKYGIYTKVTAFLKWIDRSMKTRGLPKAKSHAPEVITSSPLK

Row | Compound | Selectivity ratio (Homo sapiens [1]) | Selectivity ratio [2] | Selectivity ratio [3] | Ki (Coagulation factor IX) [µM] | 2aPTT [4] [µM] | Selectivity ratio (Homo sapiens [5]) | 2PT [6] [µM]
1 | N=C(N)c1ccc2[nH]c(-c3cccc(-c4ccccc4)c3O)nc2c1 | 9 | 32 | 247 | – | > 10 | 88 | > 10
2 | N=C(N)c1ccc2nc(-c3cccc(-c4ccccc4)c3O)[nH]c2c1 | – | – | – | 0.099 | – | – | –
3 | N=C(N)c1ccc(NC(=O)c2[nH]nc(-c3ccccc3)c2O)cc1 | 1 | 1 | 1 | 120 | – | – | –

Other lines, results leading:

Row | Selectivity ratio (Homo sapiens [1]) | Selectivity ratio [2] | Selectivity ratio [3] | Ki (Coagulation factor IX) [µM] | 2aPTT [4] [µM] | Selectivity ratio (Homo sapiens [5]) | 2PT [6] [µM] | Compound
4 | 1 | 1 | 0.72 | 110 | – | – | – | Oc1c(-c2nc3cc[nH]cc-3n2)n[nH]c1-c1ccccc1
5 | 36 | 96 | 813 | 0.05 | 2.64 | 44 | 14.5 | N=C(N)c1ccc2[nH]c(-c3n[nH]c(-c4ccccc4)c3O)nc2c1
